Reference: patent US8586033B2, “Integrin αIIbβ3 specific antibodies and peptides” (The Scripps Research Institute, priority 2003, dated 2013)
Entries after “also recorded” stand apart in the source; their conditions may differ. Where a SMILES comes first, the peptide text is derived from it. Bridges are numbered along the chain shown (N, C = ends). [ ]: non-standard residue; d: D form. hArg = N=C(N)NCCCC[C@H](N)C(=O)O; Mpa = O=C(O)CCS

Legend:
[1] = molecular target: T1, interaction of human fibrinogen and human integrin αIIbβ3 (Homo sapiens, UniProt P05106+P08514); assay: Fibrinogen binding inhibition assay (competitive ELISA)
T1 construct: purchased Enzyme Research Laboratories (South Bend, Ind.)
Protocol: Wells of a Costar 3690 96-well plate were coated with 100 ng of integrin αIIbβ3 in 50 μl metal buffer at 4° C. overnight. The plate was washed twice with water and blocked with 160 μl of 3% (w/v) skim milk in TBS for 1 h at 37° C. […] The final concentrations were adjusted between 1.3×10^−8 M and 8.0×10^−7 M of Fabs and between 8.9×10^−8 M and 9.1×10^−5 M of synthetic peptides. After incubation for 2 h at 37° C. followed by ten times washing with water and five times washing with 0.05% Tween20 in TBS, 50 μl of 0.5 μg/ml streptavidine-HRP (Pierce) diluted in 3% (w/v) skim milk in TBS was added and incubated for 1 h at 37° C. After washing as above, 50 μl of ABTS substrate solution (Barbas, C. F., 3rd, Burton, D. R., Scott, J. K., and Silverman, G. J. (2001) Phage Display: A Laboratory Manual, Cold Spring Harbor Laboratory Press, Cold Spring Harbor, N.Y.) was added. This experiment was repeated three times at each concentration to get the mean value and standard deviation.

human platelets [2] = assay: Platelet aggregation assay ex vivo (ADP-induced, lumi-aggregometer); assay type: cell-based; details: ADP 20 μM; for inhibition of platelet aggregation at 90 μM: peptide 90 μM
Protocol: Peripheral human blood was collected as described above. Platelet-rich plasma (PRP) was obtained from the collected peripheral blood by centrifugation at 135 g for 15 min. Subsequent centrifugation at 1,500 g for 15 min yielded platelet-poor plasma (PPP). By mixing PRP and PPP, conditioned plasma of 300,000-350,000 platelets per 1 μl of plasma was prepared. […] The platelet aggregation assay was done as described previously (Klinkhardt, U., Kirchmaier, C. M., Westrup, D., Breddin, H. K., Mahnel, R., Graff, J., Hild, M., and Harder, S. (2000) Differential in vitro effects of the platelet glycoprotein IIb/IIIa inhibitors abxicimab or SR121566A on platelet aggregation, fibrinogen binding and platelet secretory parameters. Thromb Res 97, 201-207) using a whole blood lumi-aggregometer (Chrono-log, Havertown, Pa.). The impedance of each sample was monitored until a stable baseline was established (<5 mV drift per minute). To induce platelet aggregation, 9 μl of an ADP solution was added to reach a final concentration of 20 μM. Increase in impedance across a pair of electrodes over time was transmitted through an interface to a personal computer for analysis (AGGRO/LINK, Chrono-log).

integrin αIIbβ3 = integrin αIIbβ3 (Homo sapiens, UniProt P05106+P08514); assay: Inhibition of binding of selected RAD antibodies to integrin by peptides
[3] = human, in vivo; cited from earlier work
[4] = test system: integrins αIIbβ3, αvβ3 and αMβ2; details: cited from earlier work
platelets = details: aggregation induced at 5 μM ADP; read-out: previously reported EC50 of platelet aggregation inhibition; cited from earlier work
HUVEC cells = assay: Flow cytometry, Fab binding to cells; assay type: cell-based, human; details: Fab 0.2 μM; HUVEC mainly express integrin αvβ3
Protocol: (§1) Peripheral blood was drawn from a healthy volunteer and collected in an ACD tube (Becton Dickinson, San Jose, Calif.). HUVEC were treated for 5 min with 0.05% (w/v) trypsin, 0.53 mM EDTA (Life Technologies), collected by centrifugation at 500 g for […], and resuspended in 1% (w/v) BSA in PBS (phosphate buffered saline). […] After incubation for 40 min at room temperature followed by washing twice with 1% (w/v) BSA in PBS, 10 μl of FITC conjugated anti-human IgG polyclonal antibodies (Sigma-Aldrich) diluted in 750 μl of 1% (w/v) BSA in PBS was added and incubated for 20 min at room temperature. After washing twice with 1% (w/v) BSA in PBS, flow cytometry was performed using a FACStar instrument from Becton Dickinson (San Jose, Calif.).

human platelets [5] = assay: Flow cytometry, Fab binding to cells; assay type: cell-based; details: Fab 0.2 μM, peripheral blood
Protocol: as §1

| Compound | inhibition of the interaction between integrin αIIbβ3 and fibrinogen (in words) [1] | inhibition of platelet aggregation ex vivo (in words) (human platelets [2]) | inhibition of platelet aggregation at 90 μM (human platelets [2]) | inhibition of the binding of the selected RAD antibodies to integrin αIIbβ3 (integrin αIIbβ3) | reported integrin specificity / cross-reactivity [4] | also measured |
| --- | --- | --- | --- | --- | --- | --- |
| CC(C)[C@H](N)C(=O)N[C@H](C(=O)N[C@H]1CSSC[C@@H](C(=O)O)NC(=O)[C@H](CCCNC(=N)N)NC(=O)[C@H](CCCNC(=N)N)NC(=O)[C@H](CC(=O)O)NC(=O)[C@H](C)NC(=O)[C@H](CCCNC(=N)N)NC1=O)C(C)C (H-VVCRADRRC-OH; disulfide 3-9; N-terminus and C-terminus assumed) | inhibited; also recorded: strongly inhibited | inhibited; also recorded: strongly inhibited | completely inhibited | inhibited | – | – |
| CC(C)[C@H](N)C(=O)N[C@@H](Cc1c[nH]c2ccccc12)C(=O)N[C@H]1CSSC[C@@H](C(=O)O)NC(=O)[C@H](CCCNC(=N)N)NC(=O)[C@H](CCCCN)NC(=O)[C@H](CC(=O)O)NC(=O)[C@H](C)NC(=O)[C@H](CCCNC(=N)N)NC1=O (H-VWCRADKRC-OH; disulfide 3-9; N-terminus and C-terminus assumed) | inhibited; also recorded: strongly inhibited | inhibited; also recorded: strongly inhibited | completely inhibited | inhibited | – | – |
| CC(C)[C@H](N)C(=O)N[C@@H](Cc1c[nH]c2ccccc12)C(=O)N[C@H]1CSSC[C@@H](C(=O)O)NC(=O)[C@H](CCCNC(=N)N)NC(=O)[C@H](CCCNC(=N)N)NC(=O)[C@H](CC(=O)O)NC(=O)[C@H](C)NC(=O)[C@H](CCCNC(=N)N)NC1=O (H-VWCRADRRC-OH; disulfide 3-9; N-terminus and C-terminus assumed) | inhibited; also recorded: strongly inhibited | inhibited; also recorded: strongly inhibited | completely inhibited | inhibited | – | inhibition of platelet aggregation at 9 μM (human platelets [2]; peptide 9 μM): the only peptide to inhibit platelet aggregation |
| N=C(N)NCCCC[C@@H]1NC(=O)CCSSC[C@@H](C(N)=O)NC(=O)[C@@H]2CCCN2C(=O)[C@H](Cc2c[nH]c3ccccc23)NC(=O)[C@H](CC(=O)O)NC(=O)CNC1=O [eptifibatide] ([Mpa][hArg]GDWPC-NH2; disulfide 1-7) | – | – | – | – | αIIbβ3-specific | incidence of thrombocytopenia versus placebo [3]: approximately the same |
| CCCCS(=O)(=O)N[C@@H](Cc1ccc(OCCCCC2CCNCC2)cc1)C(=O)O [tirofiban] | – | – | – | – | αIIbβ3-specific | – |
| Abciximab: chimeric Fab with mouse variable and human constant domains, integrin αIIbβ3 inhibitor | – | – | – | – | cross-react with integrin αvβ3 and αMβ2 | EC50 (human platelets [2]; conditioned plasma, read-out: EC50, required concentration for 50% inhibition in a human platelet aggregation assay): 45 nM; EC50 (platelets): 34 nM; occurrence of thrombocytopenia after the second administration [3]: 4%; binding to HUVEC cells (flow cytometry) (HUVEC cells): bound to both platelets and HUVEC cells; binding to human platelets (flow cytometry) (human platelets [5]): bound to both platelets and HUVEC cells |
| THSDARRRE (inversed RAD motif peptide) [control peptide with an inversed RAD motif, reference compound] | did not inhibit | – | – | – | – | – |
| THSRADRRE (listed as Homo sapiens) [linear nonapeptide derived from HCDR3 of clone RAD1] | did not inhibit and not | not | – | – | – | – |
| VVCDARRRC (inversed RAD motif peptide) [control peptide with an inversed RAD motif, reference compound] | did not inhibit | – | – | – | – | – |
